Laboratory results taken from patent US5264423A, “Inhibitors for replication of retroviruses and for the expression of oncogene products” (The United States of America as represented by the …, priority 1992, dated 1993).
“Also recorded” adds a separate entry of the source.

Legend:
[1] = tested on: HIV (HTLV-IIIB) in ATH8 cells; assay: HIV cytopathic effect inhibition (viable ATH8 cells, trypan blue)
Experimental: FIGS. 1A-1D and Table 1, The target cells (2×10^5 ATH8 cells) in each tube were pretreated with the stated concentration of each oligomer for 16 hours and then incubated with Polybrene for 45 minutes. After centrifugation, each set of pelleted cells was exposed to HIV (500 virions per cell, which is a much higher dose than the minimal cytopathic dose) and incubated for one hour. Complete media (2 ml RPMI1640) supplemented with L-glutamine (4 mti), 2-mercaptoethanol ([…]), penicillin (50 unit/ml), and streptomycin (50 micrograms/ml), and containing 15% fetal calf serum and IL-2 (15% of conventional IL-2 from Advanced Biotechnologies, Inc., Silver Spring, MD, plus 20 unit/ml of recombinant IL-2 from Amgen Biochemicals, Thousand Oaks, CA) with the various concentrations of oligomers added. The number of viable cells were counted in a hemocytometer using the trypan blue exclusion method for day 7 following exposure to the virus. Filled columns represent non-virus exposed cells, and dotted columns represent virus exposed cells.
The HIV cytopathic effect inhibition with oligodeoxynucleotides was performed with 18 hours of pretreatment of 2×10^5 target cells (ATH8 cells) with oligos prior to exposure to HTLV-IIIB. After this pretreatment, target cells were treated with Polybrene (2 micrograms/ml) for one hour. The target cells were then, respectively, exposed to HTLV-IIIB virus (generally 500 virions per cell in this series of experiments) for one hour. The 2×10^5 cells were then diluted to 2 ml with complete media containing IL-2 and various concentrations of oligos.
The number of viable cells was counted in a hemocytometer using the trypan blue exclusion method on day 7 following exposure to the virus. Each set of data were obtained from simultaneously performed experiments so as to make a precise comparison among agents tested.
The target cells (2×10^5 ATH8 cells per tube) were preincubated with the stated concentrations of S-dC14 for 24 hours and pretreated with 2 micrograms/ml of Polybrene for 45 minutes. After centrifugation, pelleted cells were exposed to the HIV (1000 virions per cell) for one hour. The cells were incubated in 2 ml of complete media containing IL-2, and the viable cells were counted on day 13.
On day 13 after the exposure to the virus, viable cells were counted by the trypan blue dye exclusion method.

[2] = tested on: HIV p24 gag protein in chronically HIV-infected H9 cells; assay: HIV gag protein expression in chronically HIV-infected H9 cells, indirect immunofluorescence; format: cell-based
Experimental: The percentage of cells expressing p24 gag protein of HIV was determined by indirect immunofluorescence microscopy by using anti-HIV p24 murine monoclonal antibody.
Generally, it has been assumed that anti-sense sequences inhibit the expression of various genes by translation arrest, i.e. that they bind to MRNA and block its translation. In order to test this possibility, gag protein synthesis was analyzed in chronically HIV-infected and -producing H9 cells by indirect immunofluorescent assay under a microscope. […] Alternatively, the level of any translation arrest could have been below the threshold of detection by indirect immunofluorescent assay under a microscope. […] Therefore, one mechanism for the antiviral effect could depend on blocking viral replication perhaps prior to, or at the stage of, pro-viral DNA synthesis.

[3] = tested on: de novo HIV DNA synthesis in ATH8 cells; assay: Southern blot of de novo HIV DNA synthesis; format: cell-based; conditions: days 4 and 7
Description: Target cells (1×10^7 ATH8 cells) were pretreated with or without S-dC28 at various concentrations for sixteen hours, then treated with Polynrene, exposed to HIV (500 virus particles per cell), resuspended, and cultured in the presence or absence of S-dC28. On days 4 and 7 following the exposure to the virus, high molecular weight DNA was extracted, digested with Asp718 (a Kpn I isoschizomer from Boehringer-tiannheim, Indianapolis, IN), and subjected to Southern blot analysis hybridized with a labelled insert of molecular clone of the env region of HTLV-III (BH10) containing a 1.3 Kb Bgl II fragment.
FIGS. 6A-6D show the inhibitor effect of the phosphorothioate oligodeoxycytidine analog (S-dC28) on de novo HIV DNA synthesis in target cells. On days 4 and 7 following the exposure to the virus, a substantial amount of viral DNA was detected by Southern blot analysis without antiviral agents.
On day 4, shown in lanes A-E, and day 7, shown in lanes F-J, following exposure to the virus, high molecular weight DNA was extracted. Lanes A and F contain DNA from ATH8 cells that were exposed to the virus and not protected by S-dC28. Lanes B and G, C and H, D and I, contain DNA from ATH8 cells pretreated and cultured with 1 micromole, 5 micromoles, and 7 micromoles S-dC28, respectively. Lanes E and J contain DNA from ATH8 cells treated with 50 micromoles 2', 3'-dideoxyadenonsine, and lane K contains DNA from ATH8 cells that was not exposed to the virus.

endonuclease S1 = assay: Nuclease susceptibility, S1 nuclease; format: in vitro ADME
Description: (§1) Several oligodeoxynucleotides were studied with regard to DNase sensitivity, cf. Table 5. These include cytidine homopolymers, ODN-4 (an anti-message 28-mer complementary to the 3' region of the art/trs region of HIV BH10 clone), and myc-1 (a 15-mer complementary to the initiation codon region of the C-myc oncogene). The DNases employed were predominantly endonuclease S1, the exo- and endonuclease P1, and snake venom (SV) phosphodiesterase. The concentration of S1 nuclease was ten-fold higher (100 micromoles/ml) for reactions of oligo-dc, since both the normal and PS analog were degraded extremely slowly be this enzyme. S1 and P1 nuclease digestion proceeded at 2-45 times more slowly for the S-ODNs than for the normal oligomers, with the […] being somewhat more readily digested than the 28-mer.

exo- and endonuclease P1 = assay: Nuclease susceptibility, P1 nuclease; format: in vitro ADME
Description: as §1

[4] = tested on: snake venom (SV) phosphodiesterase; assay: Nuclease susceptibility, snake venom phosphodiesterase; format: in vitro ADME
Description: as §1

[5] = tested on: T4 molecule in T4 cells (H9 cells); assay: Specific binding of radiolabelled HIV to T4 molecule
Experimental: (§2) The possibility that the S-ODN analogs may interfere with HIV binding to target cells was tested.

[6] = tested on: T4, HLA-DR, T8, T3, or Tac antigen on the cell surface of ATH8 cells; assay: Cell surface antigens by fluorescent-activated cytofluorometry; format: cell-based; conditions: 1 micromole (printed i), sixteen hours
Experimental: as §2

[7] = tested on: ATH8 cells (printed AT[18); assay: Cell uptake of 35S-phosphorothioate end-labelled oligomer, ATH8 cells; format: in vitro ADME; conditions: within several minutes
Description: (§3) Phosphatase-resistant 35S-phosphorothioate end-labelled S-dC28 was employed to investigate the permeability of target cells.

H9 cells = assay: Cell uptake of 35S-phosphorothioate end-labelled oligomer, H9 cells; format: in vitro ADME; conditions: within several minutes
Description: as §3

Solubility = format: physicochemical; conditions: acetate salts
Description: The phosphorothioate oligodeoxynucleotides of the present invention have suitable chemical characteristics, namely, the ability to hybridize with complementary DNA/MRNA under physiological conditions, and better solubility properties relative to methylphosphonates. Moreover, the thioesters are as soluble in biological media as the parent compounds.
Oligodeoxynucleotides with blocks of phosphorothioates at the 3' or 5' ends were synthesized by automatically changing the oxidation cycle at the required point. […] Introduction of a small amount of ammonia vapor, not aqueous ammonia, by a Pasteur PiPette solubilized all the solids. The yield determined from absorbance at lambda max was about 30%.

HL60 cells [8] = assay: HL60 cell growth (cell count); format: cell-based
HL60 cells [9] = assay: DNA synthesis (3H-thymidine incorporation) in HL60 cells; format: cell-based; conditions: 50 uM, day 1
Experimental: To obtain the results shown in FIG. 4, nonsense or antisense S-ODNs were added at a final concentration of 50 uM on day 0 to cells seeded at 3×10^5/ml. DNA synthesis was determined on day 1 by incubating cells with 1 uCi 3H-thymidine for 4 hours, after which time 10% trichloroacetic acid was added and acid precipitatable radioactivity was trapped on Sihatman glass fiber filters. The filters were subjected to liquid scintillation counting to determine levels of radioactivity.

[10] = tested on: c-myc protein in HL60 cells; assay: c-myc protein reduction; format: cell-based

(dC)n n = 28 [S-dC28]
protection against the virus / antiviral activity ([1]; 0.5 micromoles): complete protection against the virus; also recorded: complete antiviral activity; also recorded: potent antiHIV activity
inhibition of viral replication and protection of ATH8 cells from HIV ([1]; 3 micromoles, day 7): 100%
in vitro therapeutic index (ratio of cytotoxic to effective concentration) ([1]; compared with dideoxycytidine and dideoxyadenosine): comparable in vitro index to those of dideoxycytidine and dideoxyadenosine
anti-HIV activity (cytopathic effect) ([1]; in words): most consistent and durable antiviral effects
Percentage of gag positive cells ([2]; 5 micro M, 8 hours in culture): 82%
Percentage of gag positive cells ([2]; 5 micro M, 24 hours in culture): 91%
Percentage of gag positive cells ([2]; 5 micro M, 72 hours in culture): 85%
Percentage of gag positive cells ([2]; 5 micro M, 120 hours in culture): 79%
Percentage of gag positive cells ([2]; 10 micro M, 8 hours in culture): 74%
Percentage of gag positive cells ([2]; 10 micro M, 24 hours in culture): 80%
Percentage of gag positive cells ([2]; 10 micro M, 72 hours in culture): 71%
Percentage of gag positive cells ([2]; 10 micro M, 120 hours in culture): 82%
Percentage of gag positive cells ([2]; 25 micro M, 8 hours in culture): 69%
Percentage of gag positive cells ([2]; 25 micro M, 24 hours in culture): 86%
Percentage of gag positive cells ([2]; 25 micro M, 72 hours in culture): 75%
Percentage of gag positive cells ([2]; 25 micro M, 120 hours in culture): 74%
gag protein positivity ([2]; concentrations as high as 25 micromoles, 120 hours): failed to reduce gag protein positivity; also recorded: did not inhibit gag protein positivity
2.7 Kb env-containing KPN I viral DNA fragment detection ([3]; 1, 5 and 7 micromoles, lanes B-D, G-I): detected only in lanes A and F
inhibition of de novo synthesis of viral DNA ([3]; concentrations as low as / down to 1 micromolar): significantly inhibited the de novo synthesis of viral DNA; also recorded: complete inhibition
Ratio = t1/2 PSoligo/t1/2 POoligo (endonuclease S1): 2
Ratio = t1/2 PSoligo/t1/2 POoligo (exo- and endonuclease P1): 15
Nuclease susceptibility, t1/2 [4]: > 27.7778 h
Ratio = t1/2 PSoligo/t1/2 POoligo [4]: > 1400
inhibition of specific binding of labelled virus to T4 [5]: No inhibition
changes in T4, HLA-DR, T8, T3, or Tac antigen [6]: no detectable changes
uptake (increase of radioactivity) [7]: Significant increases of radioactivity
uptake (increase of radioactivity) (H9 cells): Significant increases of radioactivity
solubility in 1 M NaCl (Solubility): extremely insoluble in 1 M NaCl

dAACGTTGAGGGGCAT [S-myc-1]
concentration relative to that required for the normal oligomer (HL60 cells [8]): less than 1%
duration of antiproliferative effects (HL60 cells [8]): up to three days
growth inhibition of HL60 cells at 0.1 micro M (HL60 cells [8]; 0.1 micro M): effective
effect on HL60 cell proliferation (HL60 cells [8]; in words): significant inhibition of cell proliferation
inhibition of DNA synthesis (3H-thymidine incorporation) (HL60 cells [9]): significant inhibition
Nuclease susceptibility, t1/2 (endonuclease S1): 5.5 min
Ratio = t1/2 PSoligo/t1/2 POoligo (endonuclease S1): 9
Ratio = t1/2 PSoligo/t1/2 POoligo (exo- and endonuclease P1): 4
Ratio = t1/2 PSoligo/t1/2 POoligo [4]: 443
reduction of c-myc protein [10]: reduction of c-myc protein
